Our source for the GI50 and TGI values is PubChem BioAssay (NCI).

Holding throughout (experiment): NCI anticancer screen, dose series, 48 h
In test [1] the test system is COLO 205 colon.
Test [2] concerns HCC-2998 colon.
The test system of test [3] is HCT-15 colon.
The subject of test [4] is MOLT-4 leukemia.
For test [5], the system named is NCI-H23 lung.
Test [6] deals with OVCAR-5 ovarian.
The test system of test [7] is PC-3 prostate.
Test [8] deals with SK-MEL-5 melanoma.
The test system of test [9] is SNB-75 CNS.
Test [10] relates to T-47D breast.

The structures appear in SMILES notation.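 Five concentrations, 48 hours, 96-well plates. Here, GI50 denotes the concentration required for 50% inhibition of growth. At the TGI there is no net growth.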 Some results are limits rather than exact numbers.

With `COc1cc(C)cc2c1OC(c1ccccc1)CC2=O` (stereo not given), the GI50 in [1], in [2], in [3], in test [4], in [5] and in [6] was more than 100 µM each time. The GI50 in test [7], in [8], in [9] and in test [10] was more than 100 µM in each case. For the same compound, the TGI in [1], in test [2], in [3], in [4], in test [5] and in test [6] was more than 100 µM each time. Also, the TGI in test [7], in test [8], in test [9] and in [10] was more than 100 µM each time.
In the case of `C[C@]12CC[C@H]3[C@@H](CC=C4C[C@@H](O)CC[C@@]43C)[C@@H]1C/C(=C\c1cccc(OCCN3CCOCC3)c1)[C@@H]2O`, the GI50 in test [1] was 7.39 µM; in test [2], more than 100 µM; in [3] it was 38.9 µM; in test [4], 13.3 µM; in test [5] it was 48.5 µM; in [6] it was more than 100 µM. The GI50 was 27.4 µM in test [7], 4.98 µM in test [8], more than 100 µM in test [9] and 6.46 µM in [10]. The TGI in test [1] is 58.3 µM; in test [2], more than 100 µM; in test [3], more than 100 µM; in test [4], 48.7 µM; in test [5], more than 100 µM; in test [6], more than 100 µM. The TGI was more than 100 µM in test [7], 23.3 µM in [8], more than 100 µM in test [9] and more than 100 µM in test [10].
In the case of `Cc1cccc(C(C)O)n1` (stereo not given), the TGI in test [1], in test [2], in test [3], in test [4], in test [5] and in [6] was more than 100 µM throughout. Moreover, the TGI in test [7], in test [8], in test [9] and in test [10] was more than 100 µM throughout.
On to `O=C(CNC(=O)c1cccc2ccccc12)Nc1ccccc1Oc1cccc(O)c1`, for which the GI50 is 14.7 µM in [1]; more than 25 µM in [2]; 3.14 µM in test [3]; 4.84 µM in test [4]; 16 µM in [5]; more than 25 µM in test [6]. Besides, the GI50 was 7.13 µM in test [7], 1.86 µM in test [8], 3.3 µM in test [9] and 9.84 µM in [10]. The TGI in test [1], in test [2], in test [3], in test [4], in test [5] and in test [6] was more than 25 µM in each case. In addition, the TGI in [7], in [8], in [9] and in [10] was more than 25 µM each time.
`O=c1c2cc(Br)ccc2oc2ccc(Br)cc12`: the TGI in test [1], in [2], in test [3], in test [4], in test [5] and in test [6] was more than 100 µM in each case. The TGI in [7], in [8], in test [9] and in test [10] was more than 100 µM throughout.
As for `COc1nccc(-c2c(-c3ccc(F)cc3)ncn2C2CCC(O)CC2)n1` (stereo not given), the GI50 in [1] was 99.6 µM; in [2], more than 100 µM; in test [3] it was 36.6 µM; in test [4], more than 95.3 µM; in [5], more than 100 µM; in [6] it was 43.8 µM. In addition, the GI50 in [7] was more than 100 µM; in test [8], 43.1 µM; in test [9], more than 100 µM; in [10], 54.5 µM. Also, the TGI in test [1], in test [2], in [3], in test [4], in test [5] and in test [6] was more than 100 µM throughout. Moreover, the TGI in test [7], in test [8], in test [9] and in test [10] was more than 100 µM each time.
As for `Cc1c(C(=O)/C=C/c2ccc(O)cc2)nnn1-c1ccnc2c(C(F)(F)F)cccc12`, the GI50 is 5.68 µM in [1]; 20.9 µM in test [2]; 15.1 µM in [3]; 5.06 µM in [4]; 15.2 µM in test [5]; more than 100 µM in test [6]. Also, the GI50 in [7] was 7.88 µM; in test [8] it was 4.81 µM; in [9], 8.81 µM; in [10] it was 5.53 µM. The TGI in test [1] is 34.8 µM; in test [2], more than 100 µM; in [3] it was more than 100 µM; in test [4], 30.6 µM; in [5] it was more than 100 µM; in test [6], more than 100 µM. The TGI in test [7] is more than 100 µM; in [8] it was 24.8 µM; in test [9], 68.2 µM; in [10], more than 100 µM.
In the case of `FC(F)(F)c1ccc2c(c1)N(CCCN1CCN(C3CC3)CC1)c1ccccc1S2`, the GI50 in test [1] was 9.45 µM; in [2] it was 13.6 µM; in test [3], 3.81 µM; in test [4] it was 6.13 µM; in test [5], 7.42 µM; in [6] it was 13.2 µM. Besides, the GI50 in test [7] was 5.81 µM; in [8], 4.08 µM; in [9], 13.5 µM; in test [10], 12.5 µM. Besides, the TGI was found to be 21.5 µM in test [1]; 27.5 µM in test [2]; 18.6 µM in test [3]; 23.7 µM in test [4]; 23.1 µM in test [5]; 27.6 µM in test [6]. Moreover, the TGI in [7] came out at 20.2 µM; in test [8], 14.4 µM; in test [9] it was 28.1 µM; in test [10], 26.9 µM.
